# Reference: article PMC10716126, “Enzyme mechanistic studies of NMA1982, a protein tyrosine phosphatase and potential virulence factor in Neisseria meningitidis” (Scientific Reports, 2023)
# pIC50: −log10 of the molar value.
# Assays:
# NMA1982 [1] = target: T1, NMA1982 (Neisseria meningitidis, UniProt A1KVD0)
# T1 construct: gene NMC1647
# NMA1982 [2] = target: T1, NMA1982; remark: listed apart in the source
# T1 sequence (A1KVD0 entry or part of it): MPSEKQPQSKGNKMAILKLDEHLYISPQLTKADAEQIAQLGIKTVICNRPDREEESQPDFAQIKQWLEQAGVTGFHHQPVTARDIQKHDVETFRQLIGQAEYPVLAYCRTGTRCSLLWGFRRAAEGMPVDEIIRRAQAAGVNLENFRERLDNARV
Compound,Km (NMA1982 [1]),pIC50 (NMA1982 [2])
Cc1cc(=O)oc2c(F)c(OP(=O)(O)O)c(F)cc12 [DiFMUP],35 µM,
[O]=[V]([OH])([OH])[OH] [sodium orthovanadate],,3.79
